One test has as its system H37Rv Mtb. As to the kind of experiment: Mycobacterial MIC determination by alamar blue assay, KAN with sulfonyl isothiazoles. Type of test: cell-based, Mycobacterium tuberculosis. Particulars: KAN MIC in presence of compound at concentration tested (100x IC50 or 20 μM); KAN line = absence of compound. In general terms: The colour change of resazurin is a common sign of viable cells or microbes.

The next test has as its system K204 Mtb. In kind it is cell-based, Mycobacterium tuberculosis. The note with it: for K204 MICKAN: KAN MIC in presence of compound at concentration tested (100x IC50 or 20 μM), KAN line = absence of compound.

As for `CCN(CC)CCCNC1=NS(=O)(=O)C(c2ccc(C)c(C)c2)=C1C` [Compound 3i], the “H37Rv MICKAN” value in the test with H37Rv Mtb came to 0.625 µg/mL. Moreover, in the test with K204 Mtb, the “reduction in KAN MIC against Mtb K204” value amounted to 8 fold and the “K204 MICKAN” value worked out at 1.25 µg/mL.

On to `CC1=C(c2ccc(F)cc2)S(=O)(=O)N=C1NCCCN1CCCCC1` [Compound 6b], for which, in the test with H37Rv Mtb, the “H37Rv MICKAN” value amounted to 0.625 µg/mL. Besides, the “K204 MICKAN” value with K204 Mtb was 2.5 µg/mL.

For the molecule `CC1=C(c2ccc(F)cc2)S(=O)(=O)N=C1NCCCN1CCCCC1C` (centres unmarked) [Compound 7b], the “H37Rv MICKAN” value in the test with H37Rv Mtb was 0.625 µg/mL. Moreover, the “K204 MICKAN” value with K204 Mtb was 2.5 µg/mL.

`CC1=C(c2ccccc2)S(=O)(=O)N=C1NCCCN1CC(C)CC(C)C1` (centres unmarked) [Compound 8a]: the “H37Rv MICKAN” value in the test with H37Rv Mtb lay in the range of 0.625 to 1.25 µg/mL. Besides, in the test on K204 Mtb, the “K204 MICKAN” value was 5 µg/mL.

For the molecule `CC1=C(c2ccc(C)cc2)S(=O)(=O)N=C1NCCCN1CC(C)CC(C)C1` (centres unmarked) [Compound 8e], the “H37Rv MICKAN” value with H37Rv Mtb worked out at 0.625 µg/mL. In the test on K204 Mtb, the “K204 MICKAN” value fell in the range of 2.5 to 5 µg/mL.

For `CC1=C(c2ccc(Cl)cc2)S(=O)(=O)N=C1NCCCN1CCc2ccccc2C1` [Compound 11c], in the test on H37Rv Mtb, the “H37Rv MICKAN” value was 0.625 µg/mL. Also, in the test with K204 Mtb, the “reduction in KAN MIC against Mtb K204” value amounted to 8 fold and the “K204 MICKAN” value is 1.25 µg/mL.

For `CC1=C(c2ccc(C)cc2)S(=O)(=O)N=C1NCCCN1CCCCCC1` [Compound 12e], the “H37Rv MICKAN” value in the test on H37Rv Mtb stood at 0.625 µg/mL. The “K204 MICKAN” value in the test with K204 Mtb was 2.5 µg/mL.

Take `CC1=C(c2ccccc2)S(=O)(=O)N=C1NCCCN1CCOCC1` [Compound 13a]: the “H37Rv MICKAN” value in the test on H37Rv Mtb stood at 0.625 µg/mL. Moreover, the “K204 MICKAN” value with K204 Mtb is 2.5 µg/mL.

Turning to `CC1=C(c2ccc(C)cc2)S(=O)(=O)N=C1NCCCN1CCOCC1` [Compound 13e], the “H37Rv MICKAN” value in the test with H37Rv Mtb amounted to 0.625 µg/mL. Also, the “K204 MICKAN” value in the test on K204 Mtb amounted to 2.5 µg/mL.

As to `CC1=C(c2cccc(Cl)c2)S(=O)(=O)N=C1NCCCN1CCOCC1` [Compound 13g], in the test on H37Rv Mtb, the “H37Rv MICKAN” value is 0.625 µg/mL. Besides, the “K204 MICKAN” value with K204 Mtb lay in the range of 2.5 to 5 µg/mL.

For the molecule `CC1=C(c2ccc(C)c(C)c2)S(=O)(=O)N=C1NCCCN1CCOCC1` [Compound 13i], the “H37Rv MICKAN” value in the test with H37Rv Mtb is 0.625 µg/mL. Also, in the test with K204 Mtb, the “K204 MICKAN” value was 5 µg/mL.

For the molecule `CC1=C(c2ccc(Cl)cc2)S(=O)(=O)N=C1NCCCN1CCN(C)CC1` [Compound 14c], the “H37Rv MICKAN” value with H37Rv Mtb was found to be 0.625 µg/mL. Further, in the test with K204 Mtb, the “K204 MICKAN” value amounted to 5 µg/mL.

Consider `CCCN1CCN(CCCNC2=NS(=O)(=O)C(c3ccc(C)cc3)=C2C)CC1` [Compound 15e], for which the “H37Rv MICKAN” value in the test with H37Rv Mtb lay within 0.625 to 1.25 µg/mL. The “K204 MICKAN” value with K204 Mtb came out at 5 µg/mL.

On to `CCCN1CCN(CCCNC2=NS(=O)(=O)C(c3ccc(C(C)C)cc3)=C2C)CC1` [Compound 15f], for which, in the test on H37Rv Mtb, the “H37Rv MICKAN” value was in the range of 0.625 to 1.25 µg/mL. For the same molecule, the “K204 MICKAN” value with K204 Mtb is 10 µg/mL.

For the molecule `CC1=C(c2ccc(C)c(C)c2)S(=O)(=O)N=C1NCCCN1CCN(C2CCCCC2)CC1` [Compound 17i], the “H37Rv MICKAN” value in the test with H37Rv Mtb is 0.625 to 1.25 µg/mL. Also, in the test with K204 Mtb, the “K204 MICKAN” value was 5 µg/mL.

`CC1=C(c2ccccc2)S(=O)(=O)N=C1NCCN1CCCCC1` [Compound 33a]: the “H37Rv MICKAN” value in the test on H37Rv Mtb is 0.625 µg/mL. Also, the “K204 MICKAN” value in the test on K204 Mtb was found to be 5 µg/mL.

With `CC1=C(c2ccc(C)cc2)S(=O)(=O)N=C1NCCN1CCOCC1` [Compound 35e], the “H37Rv MICKAN” value in the test with H37Rv Mtb was 0.625 µg/mL. Besides, in the test on K204 Mtb, the “K204 MICKAN” value worked out at 5 µg/mL.

`CC1=C(c2cccc(Cl)c2)S(=O)(=O)N=C1NCCN1CCOCC1` [Compound 35g]: the “H37Rv MICKAN” value in the test on H37Rv Mtb came out at 0.625 µg/mL. In addition, in the test on K204 Mtb, the “K204 MICKAN” value was 2.5 µg/mL.

In the case of `CC1=C(c2cccc(Br)c2)S(=O)(=O)N=C1NCCN1CCOCC1` [Compound 35h], the “H37Rv MICKAN” value in the test on H37Rv Mtb was 0.625 µg/mL. Further, the “K204 MICKAN” value in the test with K204 Mtb is 2.5 µg/mL.

For the molecule `CC1=C(c2ccc(C)c(C)c2)S(=O)(=O)N=C1NCCN1CCOCC1` [Compound 35i], the “H37Rv MICKAN” value with H37Rv Mtb is 0.625 µg/mL. In addition, in the test on K204 Mtb, the “K204 MICKAN” value was found to be 2.5 µg/mL.

As to `COc1ccc(C2=C(C)C(NCCN3CCN(C)CC3)=NS2(=O)=O)cc1` [Compound 36d], the “H37Rv MICKAN” value in the test on H37Rv Mtb is 0.625 µg/mL. Moreover, in the test with K204 Mtb, the “K204 MICKAN” value lay within 2.5 to 5 µg/mL.
